Assay results: patent US20080207859A1, “F[…] LOW RESIDUAL AMOUNT OF F[…] PROCESS FOR ITS PRODUCTION” (Asahi Glass Company, Limited, priority 2005, published 2008)

Test: Measurement of 1-octanol/water partition coefficient (LogPOW) by HPLC, OECD Test Guideline 117
Format: physicochemical
Conditions: for LogPOW (1-octanol/water partition coefficient): HPLC method, OECD Test Guideline 117, calculated from elution time via calibration curve of standard carboxylic acids, column temperature 40° C.; for bioaccumulation potential (judged from LogPOW value compared to APFO): inferred from LogPOW relative to APFO
Experimental: In accordance with OECD Test Guideline 117, 1-octanol/water partition coefficient (LogPOW) of a fluorinated emulsifier was measured by using HPLC (high performance liquid chromatography).
Conditions for the measurement were as follows:
column: TOSOH ODS-120T column (φ4.6 mm×250 mm), eluent: acetonitrile/0.6 mass % of HClO4 aqueous solution=1/1 (vol/vol %), flow rate: […], sample amount: 300 μL, column temperature: 40° C., and detection light: UV 210 nm (WO2005-42593).
HPLC was carried out on standard substances (heptanoic acid, octanoic acid, nonanoic acid and decanoic acid) having known 1-octanol/water partition coefficients, and a calibration curve was prepared from the respective elution times and octanol/water partition coefficients of the respective standard substances. Based on this calibration curve, a value of partition coefficient (LogPOW) between 1-octanol and water was calculated from the elution time by HPLC of the fluorinated emulsifier.

| Structure (SMILES) | LogPOW (1-octanol/water partition coefficient) | bioaccumulation potential (judged from LogPOW value compared to APFO) |
| --- | --- | --- |
| N.O=C(O)C(F)(F)C(F)(F)C(F)(F)C(F)(F)C(F)(F)C(F)(F)C(F)(F)F [CF3(CF2)6COONH4, ammonium perfluorooctanoate] | 3.67 | – |
| N.O=C(O)C(F)(OC(F)(F)C(F)(OC(F)(F)C(F)(F)F)C(F)(F)F)C(F)(F)F (centres unmarked) [CF3CF2OCF(CF3)CF2OCF(CF3)COONH4] | 4.03 | high |
| N.O=C(O)C(F)(F)OC(F)(F)C(F)(F)OC(F)(F)C(F)(F)F [CF3CF2OCF2CF2OCF2COONH4] | 3.13 | low |
